Test results from US20070066646A1, “Compounds for Inhibiting Copper-Containing Amine Oxidases and Uses Thereof” (GENMEDICA THERAPEUTICS SL, priority 2005, published 2007).

Each molecule was assayed against T1, Human SSAO (Homo sapiens, UniProt Q16853) (assay: SSAO activity determination (H2O2 detection with horseradish peroxidase/Amplex Red, benzylamine as substrate)). Conditions: human adipose tissue homogenates as SSAO source, 20 min preincubation at 37° C., semicarbazide control subtracted.
T1 construct: Human or mice adipose tissue homogenates, used as a source of SSAO activity; from tissue; host or cells: human adipose tissue homogenate
T1 sequence (Q16853 1-763): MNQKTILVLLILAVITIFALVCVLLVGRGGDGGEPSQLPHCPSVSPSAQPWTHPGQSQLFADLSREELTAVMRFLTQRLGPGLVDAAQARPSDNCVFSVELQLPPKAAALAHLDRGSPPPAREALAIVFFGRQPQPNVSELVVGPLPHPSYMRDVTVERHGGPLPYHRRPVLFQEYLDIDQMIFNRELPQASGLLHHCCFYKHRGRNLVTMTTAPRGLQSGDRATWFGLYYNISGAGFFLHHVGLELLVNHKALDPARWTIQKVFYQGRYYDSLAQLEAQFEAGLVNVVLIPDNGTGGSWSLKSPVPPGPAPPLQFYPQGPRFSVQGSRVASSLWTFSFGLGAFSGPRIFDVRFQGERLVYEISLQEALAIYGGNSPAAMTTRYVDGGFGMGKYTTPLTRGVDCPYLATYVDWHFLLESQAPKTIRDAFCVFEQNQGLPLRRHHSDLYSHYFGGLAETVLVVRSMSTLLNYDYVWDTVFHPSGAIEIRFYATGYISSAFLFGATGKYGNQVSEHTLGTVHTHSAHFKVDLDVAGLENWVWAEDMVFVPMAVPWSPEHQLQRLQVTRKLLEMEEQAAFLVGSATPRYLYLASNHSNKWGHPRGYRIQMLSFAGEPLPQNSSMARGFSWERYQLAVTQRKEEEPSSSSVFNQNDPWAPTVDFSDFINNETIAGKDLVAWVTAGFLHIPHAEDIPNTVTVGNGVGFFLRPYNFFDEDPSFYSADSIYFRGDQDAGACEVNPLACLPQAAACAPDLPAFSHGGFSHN
Type: biochemical
Protocol: SSAO Activity Determination:
All assays were performed at 37° C. with SSAO from human or mice adipose tissue. The enzyme activity was measured through detection of hydrogen peroxide formed by the oxidation of benzylamine. This method is based on the horseradish peroxidase catalyzed hydrogen peroxide oxidation of 10-acetyl-3,7-dihydroxyphenoxazine (Molecular Probes A-6550), that produces resorufin a highly fluorescent product (excitation, 545 nm; emission, 590 nm) (Zhou and Panchuk-Voloshina, 1997). Human or mice adipose tissue homogenates, used as a source of SSAO activity, were preincubated in 96 well microplates for 20 min at 37° C. in 180 μL of 200 mM Phosphate buffer and H2O2-detecting mixture containing horseradish peroxidase (final concentration 1 U/mL) and Amplex Red reagent (60 μM) and different concentrations of inhibitors when necessary. Catalytic reaction was initiated by addition of 20 μL of benzylamine as substrate at 10 mM for human homogenates giving final concentrations of 100 μM and 1 mM respectively. Fluorescence intensity of the samples was measured continuously during 1 h (excitation, 545 nm; emission, 590 nm) and H2O2 concentration was calculated from calibration curves generated by serial dilutions of standard H2O2. To evaluate the amount of H2O2 formed specifically via SSAO-mediated reaction, semicarbazide 100 μM was included in the control wells subjected to the same treatments and these values were subtracted from the total amount of H2O2 formed.
The inhibition was measured as % decrease of the signal compared to a control without inhibitor. Blank values in absence of substrates were subtracted from the fluorescence for each experimental condition. The IC50 shown in Table 1 were calculated with GraphPad Prism 4 program.
O=C(NO)C1Cc2ccccc2C1 [compound 2] gave an IC50 of 1.1 ± 0.04 µM.
O=C(CNC(=O)c1ccc(Br)cc1)NO [compound 3] was tested, and the IC50 was 0.1 ± 0.03 µM.
O=C(NO)C(CO)NS(=O)(=O)c1ccc(-c2ccccc2)cc1 (stereo not shown) [compound 5] gave an IC50 of 0.25 ± 0.02 µM.
Work on CC(O)C(NS(=O)(=O)c1ccc(-c2ccccc2)cc1)C(=O)NO (stereo not shown) [compound 6] yielded an IC50 of 0.3 ± 0.1 µM.
For NCC(NS(=O)(=O)c1ccc(-c2ccccc2)cc1)C(=O)NO (stereo not shown) [compound 7], the IC50 was 1.9 ± 0.2 µM.
For CCCc1ccc(S(=O)(=O)NC(CO)C(=O)NO)cc1 (stereo not shown) [compound 8], the IC50 was 0.066 ± 0.001 µM.
In the case of CCCc1ccc(S(=O)(=O)NC(C(=O)NO)C(C)O)cc1 (stereo not shown) [compound 9], the IC50 is reported as 0.136 ± 0.04 µM.
Molecule CCC(C)(C)c1ccc(S(=O)(=O)NC(CO)C(=O)NO)cc1 (stereo not shown) [compound 10] has an IC50 of 0.041 ± 0.008 µM.
In the case of CCC(C)(C)c1ccc(S(=O)(=O)NC(C(=O)NO)C(C)O)cc1 (stereo not shown) [compound 11], the IC50 is reported as 0.004 ± 0.0005 µM.
In the case of CCC(C)(C)c1ccc(S(=O)(=O)NCC(=O)NO)cc1 [compound 12], the IC50 is reported as 1.57 ± 0.175 µM.
Molecule O=C(NO)C(CO)NS(=O)(=O)c1ccc2ccccc2c1 (stereo not shown) [compound 13] has an IC50 of 0.067 ± 0.001 µM.
CC(O)C(NS(=O)(=O)c1ccc2ccccc2c1)C(=O)NO (stereo not shown) [compound 14] showed an IC50 of 0.054 ± 0.007 µM.
In the case of O=C(CNS(=O)(=O)c1ccc2ccccc2c1)NO [compound 15], the IC50 is reported as 0.217 ± 0.039 µM.
O=C(CNS(=O)(=O)c1ccc2ccccc2c1)NO [compound 17] was tested, and the IC50 was 0.217 ± 0.039 µM.
With Cc1ccc(S(=O)(=O)NC(C(=O)NO)C(C)O)cc1 (stereo not shown) [compound 18] the IC50 was 0.041 ± 0.001 µM.
Work on Cc1ccc(S(=O)(=O)NC(CN)C(=O)NO)cc1 (stereo not shown) [compound 19] yielded an IC50 of 0.14 ± 0.03 µM.
Molecule CC(O)C(NS(=O)(=O)c1ccc2cccnc2c1)C(=O)NO (stereo not shown) [compound 20] has an IC50 of 0.789 ± 0.061 µM.
With CN(C)c1cccc2ccc(S(=O)(=O)NC(CO)C(=O)NO)cc12 (stereo not shown) [compound 21] the IC50 was 0.097 ± 0.021 µM.
CC(O)C(NS(=O)(=O)c1ccc2cccc(N(C)C)c2c1)C(=O)NO (stereo not shown) [compound 22] gave an IC50 of 0.369 ± 0.071 µM.
Molecule Cc1ccc(S(=O)(=O)NCc2ccc(C(=O)NO)cc2)cc1 [compound 23] has an IC50 of 0.7 ± 0.04 µM.
Cc1ccc(C2(C(=O)NCc3ccc(C(=O)NO)cc3)CCCC2)cc1 [compound 24] was tested, and the IC50 was 0.334 ± 0.08 µM.
With O=C(CCc1ccccc1O)NCc1ccc(C(=O)NO)cc1 [compound 25] the IC50 was 0.941 ± 0.026 µM.
Work on O=C(O)CCC(NC(=O)Cc1ccc(-c2ccccc2)cc1)C(=O)O (stereo not shown) [compound 26] yielded an IC50 of 0.125 ± 0.002 µM.
Cc1ccc(C2(C(=O)NC(CCC(=O)NO)C(=O)O)CCCC2)cc1 (stereo not shown) [compound 27] showed an IC50 of 0.214 ± 0.041 µM.
O=C(O)CCC(NC(=O)CCCc1ccccc1)C(=O)O (stereo not shown) [compound 28] showed an IC50 of 0.229 ± 0.092 µM.
Work on Cc1ccc(CCCC(=O)NC(CCC(=O)O)C(=O)O)cc1 (stereo not shown) [compound 29] yielded an IC50 of 0.259 ± 0.062 µM.
O=C(O)CCC(NC(=O)c1cc2ccccc2[nH]1)C(=O)O (stereo not shown) [compound 30] was tested, and the IC50 was 0.165 ± 0.007 µM.
With Cc1ccc(/C=C/C(=O)NC(CCC(=O)O)C(=O)O)cc1 (stereo not shown) [compound 31] the IC50 was 0.128 ± 0.03 µM.
NC(=O)C1CCCN1C(=O)c1ccc(-c2ccccc2)cc1 (stereo not shown) [compound 32] showed an IC50 of 0.121 ± 0.047 µM.
CC(C)(C)c1ccc(C(=O)N2CCCC2C(N)=O)cc1 (stereo not shown) [compound 33] was tested, and the IC50 was 0.09 ± 0.002 µM.
Work on NC(=O)C1CCCN1C(=O)c1cc2ccccc2cc1O (stereo not shown) [compound 34] yielded an IC50 of 0.147 ± 0.044 µM.
In the case of NC(=O)C1CCCN1C(=O)c1ccc2ncccc2c1 (stereo not shown) [compound 35], the IC50 is reported as 0.16 ± 0.031 µM.
Molecule NC(=O)C1CCCN1C(=O)c1nccc2ccccc12 (stereo not shown) [compound 36] has an IC50 of 0.078 ± 0.024 µM.
CC(CCc1ccccc1)NC(=O)CCC(=O)NO (stereo not shown) [compound 37] showed an IC50 of 0.18 ± 0.01 µM.
In the case of O=C(CCC(=O)Nc1ccccc1O)NO [compound 38], the IC50 is reported as 0.14 ± 0.01 µM.
Work on CC(NC(=O)CCC(=O)NO)c1ccc2ccccc2c1 (stereo not shown) [compound 39] yielded an IC50 of 0.39 ± 0.04 µM.
For Nc1ccc(C(=O)NCc2ccc(F)cc2)cc1O [compound 40], the IC50 was 0.202 ± 0.026 µM.
Work on Nc1ccc(C(=O)NCc2ccc3ccccc3c2)cc1O [compound 41] yielded an IC50 of 0.25 ± 0.056 µM.
Nc1ccc(C(=O)NCCOc2ccccc2)cc1O [compound 42] was tested, and the IC50 was 0.173 ± 0.009 µM.
CC(NC(=O)c1ccc(N)c(O)c1)c1ccc2ccccc2c1 (stereo not shown) [compound 43] was tested, and the IC50 was 0.337 ± 0.07 µM.
Nc1ccc(C(=O)NCCc2ccccc2)cc1O [compound 44] showed an IC50 of 0.185 ± 0.031 µM.
In the case of Nc1ccc(C(=O)NCCCc2ccccc2)cc1O [compound 45], the IC50 is reported as 0.146 ± 0.005 µM.
For Nc1ccc(C(=O)NCCCCc2ccccc2)cc1O [compound 46], the IC50 was 0.401 ± 0.03 µM.
Nc1ccc(O)c(C(=O)NCc2ccccc2)c1 [compound 47] showed an IC50 of 0.41 ± 0.063 µM.
Nc1ccc(O)c(C(=O)NCc2ccccc2O)c1 [compound 48] was tested, and the IC50 was 0.074 µM.
Work on Nc1ccc(O)c(C(=O)NCc2ccc(F)cc2)c1 [compound 49] yielded an IC50 of 0.253 ± 0.002 µM.
COc1cc(CNC(=O)c2cc(N)ccc2O)cc(OC)c1 [compound 50] gave an IC50 of 0.577 ± 0.027 µM.
In the case of Nc1ccc(O)c(C(=O)NCc2ccc3ccccc3c2)c1 [compound 51], the IC50 is reported as 0.477 ± 0.064 µM.
In the case of Nc1ccc(O)c(C(=O)NCCOc2ccccc2)c1 [compound 52], the IC50 is reported as 0.189 ± 0.016 µM.
Nc1ccc(O)c(C(=O)NCCc2ccccc2)c1 [compound 53] showed an IC50 of 0.618 ± 0.118 µM.
Nc1ccc(O)c(C(=O)NCCCc2ccccc2)c1 [compound 54] gave an IC50 of 0.575 ± 0.023 µM.
For Nc1ccc(O)c(C(=O)NCCCCc2ccccc2)c1 [compound 55], the IC50 was 0.762 ± 0.06 µM.
